Source: the supplement of paper PMC10307832

Assays:
Test in all cases: relative viability (nuclei count vs DMSO), 5 days (fraction); higher = more cells survive
[1] = compound: CS(=O)(=O)c1ccc(-c2cnc(N)c(C(=O)Nc3ccccc3)n2)cc1 [VE-821] + Cc1cc(Nc2cc(N3CCN(C)CC3)nc(Sc3ccc(NC(=O)C4CC4)cc3)n2)n[nH]1 [Tozasertib] (partner 0.1 µM)
Method in brief: (§1)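 Relative viability was taken as the ratio of nuclei in treated wells to nuclei in vehicle wells. Lung cancer cell lines in 1536-well plates received compounds by pin tool one day after seeding, either one drug alone or a fixed anchor-drug dose plus five library-drug doses (not always all listed) in √10 steps. Nuclei were counted on 4× images after 5 days of treatment, and values are medians of duplicate plates.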

[2] = compound: CS(=O)(=O)c1ccc(C(=O)Nc2ccc(Cl)c(-c3ccccn3)c2)c(Cl)c1 [Vismodegib] + COc1cccc2cc(-c3nc([C@H]4CC[C@H](C(=O)O)CC4)n4ncnc(N)c34)[nH]c12 [OSI-027] (partner 0.5 µM)
Method in brief: as §1

[3] = compound: N#CC[C@H](C1CCCC1)n1cc(-c2ncnc3[nH]ccc23)cn1 [Ruxolitinib] + O=C(CCCCCCC(=O)Nc1ccccc1)NO [Vorinostat] (partner 1 µM)
Method in brief: as §1

[4] = compound: N#CC[C@H](C1CCCC1)n1cc(-c2ncnc3[nH]ccc23)cn1 [Ruxolitinib] + CS(=O)(=O)N1CCN(Cc2cc3nc(-c4cccc5[nH]ncc45)nc(N4CCOCC4)c3s2)CC1 [Pictilisib] (partner 1 µM)
Method in brief: as §1

Row | Cell Line | relative viability ([1]; first compound 0.08 µM) | relative viability ([1]; first compound 0.253 µM) | relative viability ([1]; first compound 0.8 µM) | relative viability ([1]; first compound 2.53 µM) | relative viability ([1]; first compound 8 µM) | relative viability ([2]; first compound 0.08 µM) | relative viability ([2]; first compound 0.253 µM) | relative viability ([2]; first compound 0.8 µM) | relative viability ([2]; first compound 2.53 µM) | relative viability ([2]; first compound 8 µM) | relative viability ([3]; first compound 0.08 µM) | relative viability ([3]; first compound 0.253 µM) | relative viability ([3]; first compound 0.8 µM) | relative viability ([3]; first compound 2.53 µM) | relative viability ([3]; first compound 8 µM) | relative viability ([4]; first compound 0.08 µM) | relative viability ([4]; first compound 0.253 µM) | relative viability ([4]; first compound 0.8 µM) | relative viability ([4]; first compound 2.53 µM) | relative viability ([4]; first compound 8 µM)
1 | NCI-H838 | 0.284 | 0.25 | 0.2 | 0.212 | 0.215 | 0.416 | 0.334 | 0.338 | 0.41 | 0.441 | 0.734 | 0.669 | 0.685 | 0.535 | 0.349 | 0.464 | 0.433 | 0.402 | 0.24 | 0.278
2 | NCI-H1355 | 0.542 | 0.52 | 0.404 | 0.369 | 0.194 | 0.488 | 0.447 | 0.378 | 0.444 | 0.399 | 0.69 | 0.564 | 0.691 | 0.6 | 0.536 | 0.385 | 0.391 | 0.386 | 0.329 | 0.352
3 | NCI-H1395 | 0.765 | 0.716 | 0.671 | 0.703 | 0.762 | 0.608 | 0.562 | 0.596 | 0.599 | 0.686 | 0.577 | 0.506 | 0.743 | 0.717 | 0.654 |  | 0.553 | 0.645 | 0.584 | 0.601
4 | NCI-H1437 | 0.437 | 0.401 | 0.368 | 0.421 | 0.408 | 0.884 | 0.805 | 0.905 | 0.858 | 0.804 | 1.14 | 1.04 | 1.1 | 0.859 | 0.627 | 0.533 | 0.351 | 0.43 | 0.429 | 0.397
5 | NCI-H1650 | 0.457 | 0.416 | 0.278 | 0.299 | 0.208 | 0.652 | 0.562 | 0.577 | 0.555 | 0.729 | 0.558 | 0.557 | 0.708 | 0.551 | 0.57 |  | 0.608 | 0.734 | 0.551 | 0.645
6 | NCI-H1651 | 0.779 | 0.616 | 0.345 | 0.517 | 0.422 | 0.658 | 0.774 | 0.543 | 0.771 | 0.703 | 0.601 | 0.52 | 0.523 | 0.472 | 0.573 | 0.742 | 0.599 | 0.727 | 0.477 | 0.664
7 | NCI-H1666 | 0.625 | 0.684 | 0.646 | 0.644 | 0.603 | 0.841 | 0.764 | 0.786 | 0.858 | 0.958 | 1.05 | 1.07 | 1.1 | 1.08 | 1.14 | 0.384 | 0.453 | 0.483 | 0.415 | 0.611
8 | NCI-H1734 | 0.292 | 0.245 | 0.235 | 0.24 | 0.226 | 0.603 | 0.598 | 0.727 | 0.577 | 0.605 | 0.886 | 0.806 | 0.902 | 0.797 | 0.863 | 0.479 | 0.417 | 0.435 | 0.37 | 0.468
9 | NCI-H1755 | 0.667 | 0.543 | 0.539 | 0.532 | 0.428 | 0.782 | 0.688 | 0.73 | 0.689 | 0.634 | 0.749 | 0.713 | 0.766 | 0.712 | 0.61 | 0.425 | 0.43 | 0.469 | 0.329 | 0.297
10 | NCI-H1793 | 0.323 | 0.257 | 0.182 | 0.234 | 0.159 |  | 0.246 | 0.248 | 0.242 | 0.23 | 0.832 | 0.87 | 0.823 | 0.877 | 0.872 | 0.311 | 0.409 | 0.25 | 0.38 | 0.282
11 | NCI-H1915 | 0.472 | 0.45 | 0.341 | 0.35 | 0.303 | 0.669 | 0.592 | 0.536 | 0.566 | 0.608 | 0.467 | 0.488 | 0.565 | 0.461 | 0.332 | 0.894 | 0.925 | 0.952 | 0.803 | 0.835
12 | NCI-H1944 | 0.285 | 0.253 | 0.219 | 0.231 | 0.193 | 0.413 | 0.391 | 0.422 | 0.388 | 0.442 | 0.63 | 0.537 | 0.605 | 0.483 | 0.521 | 0.362 | 0.334 | 0.381 | 0.323 | 0.332
13 | NCI-H1975 | 0.862 | 0.625 |  | 0.17 | 0.139 | 0.724 | 0.633 | 0.686 | 0.632 | 0.607 | 0.736 | 0.633 | 0.691 | 0.59 | 0.483 | 0.302 | 0.254 | 0.285 | 0.243 | 0.231
14 | NCI-H1993 | 0.685 | 0.556 | 0.567 | 0.513 | 0.549 | 0.572 | 0.479 | 0.579 | 0.562 | 0.594 | 0.81 | 0.754 | 0.102 | 0.822 | 0.75 | 0.809 | 0.754 | 0.855 | 0.781 | 0.846
15 | NCI-H2009 | 0.871 | 0.74 | 0.633 | 0.737 | 0.734 | 0.688 | 0.619 | 0.612 | 0.608 | 0.738 | 0.715 | 0.71 | 0.722 | 0.631 | 0.507 | 0.913 | 0.901 | 0.987 | 0.508 | 0.658
16 | NCI-H2023 | 0.401 | 0.297 | 0.129 | 0.107 | 0.0977 | 0.464 | 0.354 | 0.411 | 0.322 | 0.478 | 0.661 | 0.667 | 0.95 | 0.581 | 0.798 | 0.251 | 0.188 | 0.247 | 0.215 | 0.228
